Data on two molecules can be found in patent US20240188566A1, “Biocidal Composition and Method” (ARXADA, LLC, priority 2021, published 2024).

Some results are limits rather than exact numbers.

The conditions of data set [1]: neutral pH; cited from earlier work.
The test system of data set [2] is Pseudomonas aeruginosa, Escherichia coli, Enterobacter cloacae, Acinetobacter calcoaceticus. The data set can be described thus: In-can challenge test, modified ASTM D2574-97 (Table 1). It is filed as cell-based. As for the experimental part:
(§1) Various formulations were made in accordance with the present disclosure and tested for performance. In one challenge test, the efficacy of dicyandiamide as an adjuvant for BIT was evaluated using modified ASTM D2574-97 “Standard Test Method for Resistance of Emulsion Paints in the Container to Attack by Microorganisms” with higher inoculation volumes and frequency. A standard consortium of four (4) bacterial populations: Pseudomonas aeruginosa, Escherichia coli, Enterobacter cloacae, Acinetobacter calcoaceticus was used to inoculate three (3) different samples at ten percent (10%), five percent (5%), or two and a half percent (2.5%) of the sample size. At twenty-four (24) hours and seventy-two (72) hours after each inoculation, a portion of each sample was streaked on tryptic soy agar. A dilution plate count was performed at the last seventy-two (72) hour time point.
(§2) Example data provided in Tables 1, 2 and 3 should be understood as indicating the degree of microbial growth observed for a given data point unless otherwise indicated. In particular, each plate is ranked from 0 through 5c (i.e., one of 0, 1, 2, 3, 4, 5, or 5c) according to the degree of observed microbial growth, where: a “0” ranking indicates no growth; a “1” ranking indicates one (1) through five (5) observed colony forming unit (cfu), i.e., the plate was very lightly contaminated; a “2” ranking indicates six (6) through fifteen (15) cfu, i.e., the plate was lightly contaminated; a “3” ranking indicates sixteen (16) through thirty (30) cfu, i.e., the plate was moderately contaminated; a “4” ranking indicates thirty-one (31) through forty-five (45) cfu, i.e., the plate was heavily contaminated; a “5” ranking indicates greater than (45) cfu, i.e., the plate was severely contaminated; and a “5c” ranking indicates confluent growth, i.e., the plate was very severely contaminated. Thus, for instance, Table 1, Challenge 1 at 24 h for BIT 50 ppm has a value of 5 indicating greater than forty-five (45) cfu were observed. As another example for illustration, Table 1, Challenge 1 at 24 h for dicyandiamide 5,000 ppm+BIT 50 ppm has a value of 1 indicating one (1) through five (5) cfu was observed.

Data set [3] has the same test system. Kind of data set: Repeat in-can challenge test, same conditions (Table 2). It is filed as cell-based. As for the experimental part: as §1, §2
Data set [4] relates to bacteria, fungi, and yeast. Conditions: background statement; cited from earlier work.
[5] abbreviates: BIT 50 ppm, Challenge 1 (10%), 24 h.
Where [6] appears, read: BIT 50 ppm, Challenge 1 (10%), 72 h.
Where [7] appears, read: BIT 50 ppm, Challenge 2 (5%), 72 h.
[8] abbreviates: BIT 50 ppm, Challenge 3 (2.5%), 24 h.
Setting [9] is: BIT 50 ppm, Challenge 3 (2.5%), 72 h.
Where [10] appears, read: BIT 100 ppm, Challenge 1 (10%), 24 h.
[11] abbreviates: BIT 100 ppm, Challenge 1 (10%), 72 h.
[12] abbreviates: BIT 100 ppm, Challenge 2 (5%), 72 h.
[13] abbreviates: BIT 100 ppm, Challenge 3 (2.5%), 24 h.
Setting [14] is: BIT 100 ppm, Challenge 3 (2.5%), 72 h.

For Zinc pyrithione [ZPT], the solubility in water in data set [1] is recorded as 8 ppm.

Regarding `O=c1[nH]sc2ccccc12` [BIT, 1,2-benzisothiazolin-3-one], the “degree of microbial growth (plate ranking)” value (shortened to “degree of microbial growth”) in data set [2] (setting [5]) was 5 (a “5” ranking indicates greater than (45) cfu, i.e., the plate was severely contaminated); in data set [2] (setting [6]), 2 (a “2” ranking indicates six (6) through fifteen (15) cfu, i.e., the plate was lightly contaminated); in data set [2] (setting [7]), 5 (a “5” ranking indicates greater than (45) cfu, i.e., the plate was severely contaminated); in data set [2] (setting [8]), 5c; in data set [2] (setting [10]), 5 (a “5” ranking indicates greater than (45) cfu, i.e., the plate was severely contaminated); in data set [2] (setting [11]), 0. For the same molecule, the “degree of microbial growth” value in data set [2] (setting [12]) is 0; in data set [2] (setting [13]), 5 (a “5” ranking indicates greater than (45) cfu, i.e., the plate was severely contaminated); in data set [3] (BIT 35 ppm, Challenge 1 (10%), 24 h), 5c; in data set [3] (BIT 35 ppm, Challenge 1 (10%), 72 h), 5c; in data set [3] (BIT 35 ppm, Challenge 2 (5%), 72 h), 5c; in data set [3] (BIT 35 ppm, Challenge 3 (2.5%), 24 h) it was 5c. For the same molecule, the “degree of microbial growth” value is listed as 5c in data set [3] (setting [5]); 5c in data set [3] (setting [6]); 5c in data set [3] (setting [7]); 5c in data set [3] (setting [8]); 5c in data set [3] (BIT 65 ppm, Challenge 1 (10%), 24 h); 3 (a “3” ranking indicates sixteen (16) through thirty (30) cfu, i.e., the plate was moderately contaminated) in data set [3] (BIT 65 ppm, Challenge 1 (10%), 72 h). The “degree of microbial growth” value is reported as 5c in data set [3] (BIT 65 ppm, Challenge 2 (5%), 72 h); 5c in data set [3] (BIT 65 ppm, Challenge 3 (2.5%), 24 h); 5c in data set [3] (BIT 75 ppm, Challenge 1 (10%), 24 h); 0 in data set [3] (BIT 75 ppm, Challenge 1 (10%), 72 h); 5 (a “5” ranking indicates greater than (45) cfu, i.e., the plate was severely contaminated) in data set [3] (BIT 75 ppm, Challenge 2 (5%), 72 h); 5c in data set [3] (BIT 75 ppm, Challenge 3 (2.5%), 24 h). Besides, the “degree of microbial growth” value in data set [3] (setting [10]) is listed as 5c; in data set [3] (setting [11]) it was 0; in data set [3] (setting [12]) it was 5 (a “5” ranking indicates greater than (45) cfu, i.e., the plate was severely contaminated); in data set [3] (setting [13]), 5c. In addition, the dilution plate count is on record as 7.8 × 10^6 in data set [2] (setting [9]); 5.0 × 10^1 in data set [2] (setting [14]); 3.0 × 10^6 in data set [3] (BIT 35 ppm, Challenge 3 (2.5%), 72 h); 6.6 × 10^6 in data set [3] (setting [9]); 1.0 × 10^6 in data set [3] (BIT 65 ppm, Challenge 3 (2.5%), 72 h); 2.8 × 10^5 in data set [3] (BIT 75 ppm, Challenge 3 (2.5%), 72 h). Also, the dilution plate count in data set [3] (setting [14]) was 1.8 × 10^7. Moreover, the “amount required for a reliable and quick biocidal activity” value in data set [4] is recorded as not above 500 ppm.
